# Assay results published in publication PMC3458020, “High-Throughput Screening for Novel Inhibitors of Neisseria gonorrhoeae Penicillin-Binding Protein 2” (PLoS ONE, 2012).
# Like-named read-outs stand apart in the source and are kept apart here.
# Legend:
# [1] = biological target: T1, N. gonorrhoeae PBP 2 (Neisseria gonorrhoeae, UniProt P08149); assay: FP-based concentration-response competition assay with Bocillin-FL; type: binding; settings: 1 µM PBP 2, 1 µM Bocillin-FL
# T1 construct: A soluble construct of wild-type PBP 2; made in house
# Procedure: (§1) A soluble construct of wild-type PBP 2 from the penicillin-susceptible strain of N. gonorrhoeae FA19 was expressed and purified as described previously. Bocillin FL™ was obtained from Invitrogen Inc. (Carlsbad, CA). Penicillin G and γ-Globulins from bovine blood (BGG) were purchased from Sigma (St. Louis, MO). Prior to use, all reagents were diluted in an assay buffer comprising 50 mM potassium phosphate, pH 8, and 0.1 mg/ml BGG. The DIVERSet library of 50,080 small lead compounds from ChemBridge Corporation (San Diego, CA) was provided by the MUSC Drug Discovery Core (DDC). Three laboratory strains of N. gonorrhoeae–FA19 [28], penicillin-resistant FA6140 [29], and cephalosporin-intermediate resistant Ceph^I strain 35/02 [30]–were from the laboratory collection of R. Nicholas (UNC-Chapel Hill).
# (§2) Measurements of fluorescence and FP were performed on a Spectramax M5 microplate reader (Molecular Devices, Sunnyvale, CA) with excitation and emission wavelengths of 485 nm and 520 nm, respectively, using a 515 nm filter to block residual excitation light and to minimize background interference. Black, shallow 384-well micro plates (ProxiPlate ™ –384 F Plus, PerkinElmer) were used to record data. To minimize the polarization effects from any fluorophore bound to the surface of the well, both excitation and emission data were recorded from the top of the well. Reading time was 100 ms per well. Fluorescence polarization was quantified in millipolarization units (mP) according to the equation, mP = 1000×[(Iv − G.Ih)/(Iv + G.Ih)], where Iv and Ih are parallel and perpendicular emission intensity measurements, respectively, corrected for background (buffer), and G is the instrument-dependent correction coefficient, defined as a ratio of sensitivities of the detection system for vertically and horizontally polarized light. Using the equation G = Iv/Ih and SoftMax® Pro Data Acquisition & Analysis Software (Molecular Devices, Sunnyvale, CA), the G-factor was determined with dilution series of Bocillin-FL-only (free tracer). The assay window (ΔmP) was defined as the difference between protein-tracer sample and free-tracer, i.e. ΔmP = mPs – mPfree, and is a measure of the maximum specific binding.
# To evaluate the performance of the assay, steady-state concentration-response experiments were carried out using penicillin G in a competition assay with Bocillin-FL. Penicillin G (0.05–1000 µM) was mixed with 1 µM PBP 2 and 1 µM Bocillin-FL, followed by a 1 hr incubation. The positive (Pc) and negative (Nc) controls were defined as the FP of the Bocillin-FL - protein and of the free tracer, respectively, in the absence of penicillin G. The FP of the Bocillin-FL - protein at 100 µM penicillin G was defined as a displaced tracer control (Dc). Since DMSO was used as a solvent in the compound library, the effect of 10% DMSO on the FP-binding assay was also determined. Data points were normalized to the maximum specific binding, which defines complete saturation of PBP 2 by Bocillin-FL in the absence of penicillin G, and IC50 values were determined using non-linear regression analysis using GraphPad Prism version 4.00 for Windows (GraphPad Software, Inc, San Diego, CA).
# For the FP experiments, 0.01–200 µM of each potential hit was incubated with PBP 2 (1 µM) for 1 h, followed by an additional 30 min incubation with 1 µM Bocillin-FL to detect the residual activity of the labeled penicillin binding. For the SDS-PAGE-based concentration-response experiments, PBP 2 (1 µM) in 50 mM sodium phosphate, 0.01% Triton X-100, pH 8 was incubated with 0.05–1000 µM of a compound for 1 h, followed by additional 15 min incubation with 10 µM Bocillin-FL. The reaction was stopped by mixing each sample with 5 X SDS-loading buffer, followed by boiling for 2 min. The samples were submitted to electrophoresis on 10% Mini-Protean TGX™ SDS-PAGE gels (Bio-Rad, Hercules, CA) to separate bound PBP 2 from free ligand. […]
# [2] = biological target: T1, N. gonorrhoeae PBP 2; assay: FP high-throughput screening assay (Bocillin-FL binding to PBP 2); set-up: Inhibition (%) of Bocillin-FL binding to PBP 2: concentration or dose not given beside the values; settings: four replicates; for Compound (mP) (mean ± SD): FP signal of individual compound with PBP 2 and Bocillin-FL; for Inhibition (%) of Bocillin-FL binding to PBP 2: individual compounds
# Procedure: as §1, §2
# HTS screening against the ChemBridge DIVERSet library was carried out under the following conditions: 1 µl of each compound (10% DMSO final) in duplicate was pre-incubated with 9 µl of PBP 2 for 1 h at room temperature, followed by additional 30 min incubation with 2 µl Bocillin-FL (0.87 µM PBP2∶ 1 µM Bocillin-FL final). In addition to samples with the compounds, each plate also contained 2 background wells (12 µl buffer only), and at least 4 wells each for Pc, Nc, and Dc reactions. All samples used for background measurements or controls included 10% DMSO. Initial screening was carried out with 10 mM cocktails of 10 compounds (giving a final concentration of 100 µM for each compound). […] The auto fluorescence of each compound was also tested individually.
# [3] = biological target: T1, N. gonorrhoeae PBP 2; assay: SDS-PAGE-based concentration-response assay with Bocillin-FL (0.01% Triton X-100); type: binding
# Procedure: as §1
# For the FP experiments, 0.01–200 µM of each potential hit was incubated with PBP 2 (1 µM) for 1 h, followed by an additional 30 min incubation with 1 µM Bocillin-FL to detect the residual activity of the labeled penicillin binding. For the SDS-PAGE-based concentration-response experiments, PBP 2 (1 µM) in 50 mM sodium phosphate, 0.01% Triton X-100, pH 8 was incubated with 0.05–1000 µM of a compound for 1 h, followed by additional 15 min incubation with 10 µM Bocillin-FL. The reaction was stopped by mixing each sample with 5 X SDS-loading buffer, followed by boiling for 2 min. The samples were submitted to electrophoresis on 10% Mini-Protean TGX™ SDS-PAGE gels (Bio-Rad, Hercules, CA) to separate bound PBP 2 from free ligand. At least two independent reactions were performed in duplicate at each concentration of an inhibitor. Gels were visualized by UV using a Kodak EDAS 290 imaging system (Scientific Imaging Systems Eastman Kodak, New Haven, CT, USA) and the protein bands were stained with Coomassie to verify equal loading. Densitometry was performed with ImageJ 1.37v program (National Institutes of Health, USA, http://rsb.info.nih.gov/ij/). In both methods, data points were normalized to the maximum value of the fluorescence intensity, which defines complete saturation of PBP 2 by Bocillin-FL in the absence of compound, and IC50 values of the inhibitors were defined as the concentration of a compound at 50% of the residual activity of Bocillin-FL and calculated using GraphPad Prism (see above).
# [4] = tested on: N. gonorrhoeae FA19; assay: MIC on GCB agar plates, strain FA19; type: cell-based; settings: Neisseria gonorrhoeae
# Procedure: (§3) Three strains of N. gonorrhoeae were used in susceptibility tests: 1) FA19, a penicillin-and cephalosporin-susceptible strain; 2) FA6140, a penicillin-resistant but cephalosporin-susceptible strain; and 3) 35/02, a penicillin-resistant and cephalosporin intermediate-resistant strain. The disc diffusion zone method was applied for preliminary testing of “hits” identified in the screening process. For this method, 100 µl of a cell suspension (∼1×10^7 bacteria) was added to 3 ml of GCB top agar (GC Broth containing 0.75% agar) at 50 °C, which was then added to GCB plates and allowed to solidify. Five µl of each compound (5 µg) was added separately to antibiotic susceptibility discs (BBL™, BD, Franklin Lakes, NJ), the discs were placed on top of plates, and the plates were incubated overnight in a 4% CO2 incubator at 37 °C. Those compounds that produced a visible zone of inhibition were then tested for their MICs on agar plates as described. Briefly, GCB agar plates containing increasing amounts of the tested compounds were spotted with 5×10^4 cells. The lowest concentration of the test compound that prevented growth of <5 colonies was defined as the MIC. These experiments were repeated three times, with each experiment producing similar results.
# [5] = tested on: N. gonorrhoeae 35/02; assay: MIC on GCB agar plates, strain 35/02; type: cell-based; settings: Neisseria gonorrhoeae
# Procedure: as §3
# [6] = tested on: N. gonorrhoeae FA6140; assay: MIC on GCB agar plates, strain FA6140; type: cell-based; settings: Neisseria gonorrhoeae
# Procedure: as §3
# [7] = biological target: T2, PBP 2 (Neisseria gonorrhoeae, UniProt P08149); assay: Mass spectrometry test for covalent interaction with PBP 2; settings: data not shown
# T2 construct: A soluble construct of wild-type PBP 2; made in house
# [8] = IC50 measured by FP, 0.01–200 µM compound, four replicates
# [9] = IC50, SDS-PAGE assay, 1 µM PBP 2, 10 µM Bocillin-FL, 0.01% Triton X-100
# [10] = IC50 measured by SDS-PAGE, 0.01% Triton X-100, 1 µM PBP 2, 10 µM Bocillin-FL, two independent experiments
# [11] = penicillin- and cephalosporin-susceptible strain FA19, read-out: MIC FA19
# [12] = penicillin-resistant, cephalosporin intermediate-resistant strain 35/02, read-out: MIC 35/02
# [13] = penicillin-resistant, cephalosporin-susceptible strain FA6140, read-out: MIC FA6140
# T1 sequence (P08149 44-581 limits assumed): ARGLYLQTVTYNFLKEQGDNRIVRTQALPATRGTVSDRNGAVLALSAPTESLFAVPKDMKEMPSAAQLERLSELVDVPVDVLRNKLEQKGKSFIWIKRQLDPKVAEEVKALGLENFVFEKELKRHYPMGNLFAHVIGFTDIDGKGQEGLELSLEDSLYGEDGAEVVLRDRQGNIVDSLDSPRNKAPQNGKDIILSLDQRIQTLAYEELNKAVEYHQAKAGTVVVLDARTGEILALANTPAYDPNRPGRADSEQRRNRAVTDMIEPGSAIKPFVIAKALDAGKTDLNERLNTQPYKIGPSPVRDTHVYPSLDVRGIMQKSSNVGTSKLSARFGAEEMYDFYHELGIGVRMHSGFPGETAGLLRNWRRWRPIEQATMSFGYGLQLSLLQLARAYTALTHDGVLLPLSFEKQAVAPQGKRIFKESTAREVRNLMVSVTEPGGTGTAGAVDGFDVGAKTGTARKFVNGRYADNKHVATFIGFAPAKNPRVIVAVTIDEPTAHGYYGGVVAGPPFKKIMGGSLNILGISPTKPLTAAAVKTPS
# T2 sequence (P08149 44-581 limits assumed): as above
SMILES,"IC50 [1, 8] [µM]",Compound (mP) (mean ± SD) [2],Inhibition (%) of Bocillin-FL binding to PBP 2 [2] [%],"IC50 [3, 9] [µM]","IC50 [3, 10] [µM]","MIC [4, 11] [µg/mL]","MIC [5, 12] [µg/mL]","MIC [6, 13] [µg/mL]","IC50 ([1]; IC50 of penicillin G for PBP 2 (FP-based competition assay), with 10% DMSO) [µM]","IC50 ([1]; IC50 of penicillin G for PBP 2 (FP-based competition assay), without DMSO) [µM]","IC50 ([3]; IC50, SDS-PAGE assay, same IC50 given in µg/ml) [µM]","MIC ([4]; strain FA19, MIC given in µM, read-out: MIC FA19) [µM]","MIC ([5]; strain 35/02, MIC given in µM, read-out: MIC 35/02) [µM]","MIC ([6]; strain FA6140, MIC given in µM, read-out: MIC FA6140) [µM]",Covalent interaction with PBP 2 (mass of the protein) [7],"MIC ([4]; FA19, read-out: MIC FA19) [µg/mL]","MIC ([5]; 35/02, read-out: MIC 35/02) [µg/mL]","MIC ([6]; FA6140, read-out: MIC FA6140) [µg/mL]"
O=Cc1cc(Cc2ccccc2)cc([N+](=O)[O-])c1O [Compound 2],330,60.4±20.3,85.8,128,128,4,8,16,–,–,–,–,–,–,–,–,–,–
Sc1nnc(-c2ccc(Cl)cc2Cl)n1/N=C/C=C/c1ccco1 [Compound 3],129,65.7±12.4,81.8,898,–,16,32,32,–,–,–,–,–,–,–,–,–,–
CCc1ccc(S(=O)(=O)Nc2ccc(O)c3ccccc23)cc1 [Compound 5],52.1,43.3±0.8,97.6,56,56.3,8,16,16,–,–,–,–,–,–,–,–,–,–
CCc1ccc(O)c(/N=C/c2cc(I)cc(I)c2O)c1 [Compound 1],114,31.4±0.1,108.2,221,221,4,16,16,–,–,–,–,–,–,–,–,–,–
"CC1(C)S[C@@H]2[C@H](NC(=O)Cc3ccccc3)C(=O)N2[C@H]1C(=O)O [Penicillin G, reference compound]",–,–,–,–,–,–,–,–,1,1.4,–,–,–,–,–,–,–,–
CN1C(=O)/C(=C2\SC(=S)NC2=O)c2cc(Br)ccc21 [Compound 7],11.3,45.2±20.2,96.6,153,153,2,8,8,–,–,152,5.6,23.4,23.4,no increase in mass of the protein was observed,–,–,–
O=S(=O)(Nc1ccc(O)c2ccccc12)c1cccc2ccccc12 [Compound 4],51.4,35.6±2.1,105.4,50,50.2,16,16,16,–,–,–,–,–,–,–,–,–,–
O=c1sc2ccccc2c(O)c1C(c1ccccc1)c1c(O)c2ccccc2sc1=O [Compound 6],50.9,54.6±3.2,89.5,49,49.3,–,–,–,–,–,–,–,–,–,–,4,8,8
